Laboratory results as given in patent US9273036B2, “Oxindole derivatives carrying an oxetane substituent and use thereof for treating vasopressine-related diseases” (AbbVie Deutschland GmbH & Co. KG, priority 2013, dated 2016).

Target: T1, human vasopressin V1b receptor (Homo sapiens, UniProt P47901)
T1 sequence (P47901 1-424): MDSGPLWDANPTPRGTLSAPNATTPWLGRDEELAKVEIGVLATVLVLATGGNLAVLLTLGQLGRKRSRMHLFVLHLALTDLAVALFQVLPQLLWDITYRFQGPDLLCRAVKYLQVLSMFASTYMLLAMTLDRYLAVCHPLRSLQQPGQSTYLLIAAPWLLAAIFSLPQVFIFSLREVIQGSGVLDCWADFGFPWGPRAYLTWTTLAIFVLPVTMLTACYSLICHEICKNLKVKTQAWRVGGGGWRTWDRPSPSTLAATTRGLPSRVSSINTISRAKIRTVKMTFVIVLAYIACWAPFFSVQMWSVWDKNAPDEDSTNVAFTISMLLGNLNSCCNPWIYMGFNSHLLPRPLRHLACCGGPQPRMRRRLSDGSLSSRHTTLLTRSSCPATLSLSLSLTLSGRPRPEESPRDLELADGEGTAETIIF
Experiment: biochemical

Compared with `CCOc1ncccc1[C@]1(NC(=O)N2CCC(N3CCN(C4COC4)CC3)CC2)C(=O)N(S(=O)(=O)c2ccc(OC)cc2)c2ccc(C#N)cc21` [Example 13, (S)—N-(5-cyano-3-(2-ethoxypyridin-3-yl)-1-((4-methoxyphenyl)sulfonyl)-2-oxoindolin-3-yl)-4-(4-(oxetan-3-yl)piperazin-1-yl)piperidine-1-carboxamide], `CCOc1ncccc1C1(NC(=O)N2CCN(C3CCN(C4COC4)CC3)CC2)C(=O)N(S(=O)(=O)c2ccc(OC)cc2)c2ccc(C#N)cc21` (centres unmarked) [Example 3, N-(5-cyano-3-(2-ethoxypyridin-3-yl)-1-((4-methoxyphenyl)sulfonyl)-2-oxoindolin-3-yl)-4-(1-(oxetan-3-yl)piperidin-4-yl)piperazine-1-carboxamide] is lower in Ki: 10 to 100 nM for the first, 1 to 10 nM for the second.

First: CCOc1ncccc1[C@]1(NC(=O)N2CCN(C3CCN(C4COC4)CC3)CC2)C(=O)N(S(=O)(=O)c2ccc(OC)c(C)c2C)c2ccc(C#N)cc21 [Example 18, (S)—N-(5-cyano-3-(2-ethoxypyridin-3-yl)-1-((4-methoxy-2,3-dimethylphenyl)sulfonyl)-2-oxoindolin-3-yl)-4-(1-(oxetan-3-yl)piperidin-4-yl)piperazine-1-carboxamide]
Second: CCOc1ncccc1[C@]1(NC(=O)N2CCN(C3CCN(C4COC4)CC3)CC2)C(=O)N(S(=O)(=O)c2ccc(OC)cc2OC)c2ccc(C#N)cc21 [Example 1, (S)—N-(5-cyano-1-((2,4-dimethoxyphenyl)sulfonyl)-3-(2-ethoxypyridin-3-yl)-2-oxoindolin-3-yl)-4-(1-(oxetan-3-yl)piperidin-4-yl)piperazine-1-carboxamide]
The Ki of the first is higher: 10 to 100 nM for the first, < 1 nM for the second. The second binds more tightly here.

First: CCOc1ncccc1[C@]1(NC(=O)N2CCC(N3CCN(C4COC4)CC3)CC2)C(=O)N(S(=O)(=O)c2ccc(C#N)cc2)c2ccc(C#N)cc21 [Example 12, (S)—N-(5-cyano-1-((4-cyanophenyl)sulfonyl)-3-(2-ethoxypyridin-3-yl)-2-oxoindolin-3-yl)-4-(4-(oxetan-3-yl)piperazin-1-yl)piperidine-1-carboxamide]
Second: CCOc1ncccc1[C@]1(NC(=O)N2CCN(C3CCN(C4COC4)CC3)CC2)C(=O)N(S(=O)(=O)c2ccc(C#N)cc2)c2ccc(C#N)cc21 [Example 5, (S)—N-(5-cyano-1-((4-cyanophenyl)sulfonyl)-3-(2-ethoxypyridin-3-yl)-2-oxoindolin-3-yl)-4-(1-(oxetan-3-yl)piperidin-4-yl)piperazine-1-carboxamide]
The Ki of the first is higher: 10 to 100 nM for the first, 1 to 10 nM for the second.

Compared with `CCOc1ncccc1[C@]1(NC(=O)N2CCN(C3CCN(C4COC4)CC3)CC2)C(=O)N(S(=O)(=O)c2ccc(OC)cc2OC)c2ccc(Cl)cc21` [Example 10, (S)—N-(5-chloro-1-((2,4-dimethoxyphenyl)sulfonyl)-3-(2-ethoxypyridin-3-yl)-2-oxoindolin-3-yl)-4-(1-(oxetan-3-yl)piperidin-4-yl)piperazine-1-carboxamide], `CCOc1ncccc1[C@]1(NC(=O)N2CCC(N3CCN(C4COC4)CC3)CC2)C(=O)N(S(=O)(=O)c2ccc(OC)cc2OC)c2ccc(Cl)cc21` [Example 14, (S)—N-(5-chloro-1-((2,4-dimethoxyphenyl)sulfonyl)-3-(2-ethoxypyridin-3-yl)-2-oxoindolin-3-yl)-4-(4-(oxetan-3-yl)piperazin-1-yl)piperidine-1-carboxamide] is higher in Ki: < 1 nM for the first, 1 to 10 nM for the second.

`CCOc1ncccc1[C@]1(NC(=O)N2CCN(C3CCN(C4COC4)CC3)CC2)C(=O)N(S(=O)(=O)c2ccc(OC)cc2F)c2ccc(C#N)cc21` [Example 6, (S)—N-(5-cyano-3-(2-ethoxypyridin-3-yl)-1-((2-fluoro-4-methoxyphenyl)sulfonyl)-2-oxoindolin-3-yl)-4-(1-(oxetan-3-yl)piperidin-4-yl)piperazine-1-carboxamide] and `COc1ccc(S(=O)(=O)N2C(=O)C(NC(=O)N3CCN(C4CCN(C5COC5)CC4)CC3)(c3cccnc3OC)c3cc(C#N)ccc32)c(OC)c1` (centres unmarked) [Example 15, N-(5-cyano-1-((2,4-dimethoxyphenyl)sulfonyl)-3-(2-methoxypyridin-3-yl)-2-oxoindolin-3-yl)-4-(1-(oxetan-3-yl)piperidin-4-yl)piperazine-1-carboxamide] fall in the same range of Ki: 1 to 10 nM for the first, 1 to 10 nM for the second.

Compared with `CCOc1ncccc1C1(NC(=O)N2CCN(C3CCN(C4COC4)CC3)CC2)C(=O)N(S(=O)(=O)c2ccccc2)c2ccc(C#N)cc21` (centres unmarked) [Example 4, N-(5-cyano-3-(2-ethoxypyridin-3-yl)-2-oxo-1-(phenylsulfonyl)indolin-3-yl)-4-(1-(oxetan-3-yl)piperidin-4-yl)piperazine-1-carboxamide], `CCOc1ncccc1[C@]1(NC(=O)N2CCN(C3CCN(C4COC4)CC3)CC2)C(=O)N(S(=O)(=O)c2cc(F)c(OC)cc2OC)c2ccc(C#N)cc21` [Example 8, (S)—N-(5-cyano-3-(2-ethoxypyridin-3-yl)-1-((5-fluoro-2,4-dimethoxyphenyl)sulfonyl)-2-oxoindolin-3-yl)-4-(1-(oxetan-3-yl)piperidin-4-yl)piperazine-1-carboxamide] is lower in Ki: 10 to 100 nM for the first, 1 to 10 nM for the second. The second binds more tightly here.

First: CCOc1ncccc1[C@]1(NC(=O)N2CCC(N3C[C@@H]4C[C@H]3CN4C3COC3)CC2)C(=O)N(S(=O)(=O)c2ccc(OC)cc2OC)c2ccc(C#N)cc21 [Example 17, N—((S)-5-cyano-1-((2,4-dimethoxyphenyl)sulfonyl)-3-(2-ethoxypyridin-3-yl)-2-oxoindolin-3-yl)-4-((1S,4S)-5-(oxetan-3-yl)-2,5-diazabicyclo[2.2.1]heptan-2-yl)piperidine-1-carboxamide]
Second: CCOc1ncccc1[C@]1(NC(=O)N2CCN(C3CCN(C4COC4)CC3)CC2)C(=O)N(S(=O)(=O)c2ccc(OC)cc2OC)c2cc(F)c(F)cc21 [Example 9, (S)—N-(1-((2,4-dimethoxyphenyl)sulfonyl)-3-(2-ethoxypyridin-3-yl)-5,6-difluoro-2-oxoindolin-3-yl)-4-(1-(oxetan-3-yl)piperidin-4-yl)piperazine-1-carboxamide]
The Ki of the first is higher: 10 to 100 nM for the first, 1 to 10 nM for the second.
